Laboratory results from ChEMBL document CHEMBL4804286, “3-amino-4-(4-(4 (dimethylcarbamoyl) phenyl)-1,4-diazepan-1-yl) thieno [2,3-b] pyridine-2-carboxamide for use in cancer therapy and formulations comprising the same” (2020).
“And” between values parts separate entries of the source, which are not always exact repeats. Equal values may be shown once.

Key:
Design in all cases: scale not given: the % may be the effect or the level left
[1] = biological target: 5'-AMP-activated protein kinase catalytic subunit alpha-1 (Homo sapiens) (UniProt Q13131); experiment: Inhibition of human AMPK-alpha1 assessed as percent of control at 2000 nM by KINOMEscan assay relative to control
[2] = biological target: Tyrosine-protein kinase Mer (Homo sapiens) (UniProt Q12866); experiment: Inhibition of human MERTK assessed as percent of control at 2000 nM by KINOMEscan assay relative to control
[3] = biological target: Dual specificity protein kinase CLK2 (Homo sapiens) (UniProt P49760); experiment: Inhibition of human CLK2 assessed as percent of control at 2000 nM by KINOMEscan assay relative to control
[4] = biological target: Myotonin-protein kinase (Homo sapiens) (UniProt Q09013); experiment: Inhibition of human DMPK assessed as percent of control at 2000 nM by KINOMEscan assay relative to control
[5] = biological target: Fibroblast growth factor receptor 1 (Homo sapiens) (UniProt P11362); experiment: Inhibition of human FGFR1 assessed as percent of control at 2000 nM by KINOMEscan assay relative to control
[6] = biological target: Serine/threonine-protein kinase Sgk3 (Homo sapiens) (UniProt Q96BR1); experiment: Inhibition of human SGK3 assessed as percent of control at 2000 nM by KINOMEscan assay relative to control
[7] = biological target: Tyrosine-protein kinase receptor Tie-1 (Homo sapiens) (UniProt P35590); experiment: Inhibition of human TIE1 assessed as percent of control at 2000 nM by KINOMEscan assay relative to control
[8] = biological target: Fibroblast growth factor receptor 3 (Homo sapiens) (UniProt P22607); experiment: Inhibition of human FGFR3 assessed as percent of control at 2000 nM by KINOMEscan assay relative to control
[9] = tested on: Epidermal growth factor receptor (Homo sapiens), P00533 [G719C]; experiment: Inhibition of human EGFR G719C mutant assessed as percent of control at 2000 nM by KINOMEscan assay relative to control
[10] = biological target: Myosin light chain kinase, smooth muscle (Homo sapiens) (UniProt Q15746); experiment: Inhibition of human MYLK assessed as percent of control at 2000 nM by KINOMEscan assay relative to control
[11] = biological target: Phosphatidylinositol 5-phosphate 4-kinase type-2 beta (Homo sapiens) (UniProt P78356); experiment: Inhibition of human PIP5K2B assessed as percent of control at 2000 nM by KINOMEscan assay relative to control
[12] = biological target: Tyrosine-protein kinase Tec (Homo sapiens) (UniProt P42680); experiment: Inhibition of human TEC assessed as percent of control at 2000 nM by KINOMEscan assay relative to control
[13] = biological target: Mitogen-activated protein kinase kinase kinase kinase 3 (Homo sapiens) (UniProt Q8IVH8); experiment: Inhibition of human MAP4K3 assessed as percent of control at 2000 nM by KINOMEscan assay relative to control
[14] = biological target: Serine/threonine-protein kinase mTOR (Homo sapiens) (UniProt P42345); experiment: Inhibition of human MTOR assessed as percent of control at 2000 nM by KINOMEscan assay relative to control
[15] = biological target: Serine/threonine-protein kinase DCLK3 (Homo sapiens) (UniProt Q9C098); experiment: Inhibition of human DCAMKL3 assessed as percent of control at 2000 nM by KINOMEscan assay relative to control
[16] = biological target: Serine/threonine-protein kinase WNK1 (Homo sapiens) (UniProt Q9H4A3); experiment: Inhibition of human WNK1 assessed as percent of control at 2000 nM by KINOMEscan assay relative to control
[17] = biological target: Leukocyte tyrosine kinase receptor (Homo sapiens) (UniProt P29376); experiment: Inhibition of human LTK assessed as percent of control at 2000 nM by KINOMEscan assay relative to control
[18] = biological target: Serine/threonine-protein kinase PRP4 homolog (Homo sapiens) (UniProt Q13523); experiment: Inhibition of human PRP4 assessed as percent of control at 2000 nM by KINOMEscan assay relative to control
[19] = biological target: Cyclin-dependent kinase 7 (Homo sapiens) (UniProt P50613); experiment: Inhibition of human CDK7 assessed as percent of control at 2000 nM by KINOMEscan assay relative to control
[20] = biological target: Ribosomal protein S6 kinase alpha-6 (Homo sapiens) (UniProt Q9UK32); experiment: Inhibition of human N-terminal RSK4 kinase domain 1 assessed as percent of control at 2000 nM by KINOMEscan assay relative to control
[21] = biological target: Activin receptor type-1 (Homo sapiens) (UniProt Q04771); experiment: Inhibition of human ACVR1 assessed as percent of control at 2000 nM by KINOMEscan assay relative to control
[22] = biological target: Mast/stem cell growth factor receptor Kit (Homo sapiens) (UniProt P10721); experiment: Inhibition of human KIT assessed as percent of control at 2000 nM by KINOMEscan assay relative to control
[23] = biological target: Calcium/calmodulin-dependent protein kinase type 1 (Homo sapiens) (UniProt Q14012); experiment: Inhibition of human CAMK1 assessed as percent of control at 2000 nM by KINOMEscan assay relative to control
[24] = biological target: Mitogen-activated protein kinase 3 (Homo sapiens) (UniProt P27361); experiment: Inhibition of human ERK1 assessed as percent of control at 2000 nM by KINOMEscan assay relative to control
[25] = biological target: Cyclin-dependent kinase-like 2 (Homo sapiens) (UniProt Q92772); experiment: Inhibition of human CDKL2 assessed as percent of control at 2000 nM by KINOMEscan assay relative to control
[26] = biological target: Tyrosine-protein kinase JAK2 (Homo sapiens) (UniProt O60674); experiment: Inhibition of human JAK2 JH1 catalytic domain assessed as percent of control at 2000 nM by KINOMEscan assay relative to control
[27] = biological target: Platelet-derived growth factor receptor beta (Homo sapiens) (UniProt P09619); experiment: Inhibition of human PDGFRB assessed as percent of control at 2000 nM by KINOMEscan assay relative to control
[28] = biological target: Cyclin-dependent kinase 11A (Homo sapiens) (UniProt Q9UQ88); experiment: Inhibition of human CDC2L2 assessed as percent of control at 2000 nM by KINOMEscan assay relative to control
[29] = biological target: Phosphorylase b kinase gamma catalytic chain, skeletal muscle/heart isoform (Homo sapiens) (UniProt Q16816); experiment: Inhibition of human PHKG1 assessed as percent of control at 2000 nM by KINOMEscan assay relative to control
[30] = biological target: Serine/threonine-protein kinase pim-2 (Homo sapiens) (UniProt Q9P1W9); experiment: Inhibition of human PIM2 assessed as percent of control at 2000 nM by KINOMEscan assay relative to control
[31] = biological target: Insulin-like growth factor 1 receptor (Homo sapiens) (UniProt P08069); experiment: Inhibition of human IGF1R assessed as percent of control at 2000 nM by KINOMEscan assay relative to control
Insulin-like growth factor 1 receptor (Homo sapiens), sequence (P08069 31-736 limits assumed): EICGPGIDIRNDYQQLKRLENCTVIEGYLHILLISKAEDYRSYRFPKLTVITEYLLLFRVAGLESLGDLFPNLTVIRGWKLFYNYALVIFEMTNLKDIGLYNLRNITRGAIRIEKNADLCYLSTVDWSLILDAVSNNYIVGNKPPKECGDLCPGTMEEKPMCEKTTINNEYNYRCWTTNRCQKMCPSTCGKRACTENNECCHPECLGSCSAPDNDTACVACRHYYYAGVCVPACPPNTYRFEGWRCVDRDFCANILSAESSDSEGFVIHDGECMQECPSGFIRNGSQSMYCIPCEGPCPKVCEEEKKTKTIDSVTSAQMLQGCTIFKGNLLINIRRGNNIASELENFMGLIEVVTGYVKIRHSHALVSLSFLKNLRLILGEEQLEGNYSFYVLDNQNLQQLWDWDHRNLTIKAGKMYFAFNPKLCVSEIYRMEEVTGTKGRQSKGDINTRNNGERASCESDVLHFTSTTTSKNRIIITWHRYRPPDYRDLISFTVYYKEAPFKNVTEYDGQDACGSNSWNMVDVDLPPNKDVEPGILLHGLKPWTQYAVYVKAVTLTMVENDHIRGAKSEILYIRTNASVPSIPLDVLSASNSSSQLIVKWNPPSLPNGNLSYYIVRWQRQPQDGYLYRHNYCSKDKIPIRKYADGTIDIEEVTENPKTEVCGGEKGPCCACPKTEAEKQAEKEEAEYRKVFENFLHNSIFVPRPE
Insulin-like growth factor 1 receptor (Homo sapiens), sequence (P08069 741-1367 limits assumed): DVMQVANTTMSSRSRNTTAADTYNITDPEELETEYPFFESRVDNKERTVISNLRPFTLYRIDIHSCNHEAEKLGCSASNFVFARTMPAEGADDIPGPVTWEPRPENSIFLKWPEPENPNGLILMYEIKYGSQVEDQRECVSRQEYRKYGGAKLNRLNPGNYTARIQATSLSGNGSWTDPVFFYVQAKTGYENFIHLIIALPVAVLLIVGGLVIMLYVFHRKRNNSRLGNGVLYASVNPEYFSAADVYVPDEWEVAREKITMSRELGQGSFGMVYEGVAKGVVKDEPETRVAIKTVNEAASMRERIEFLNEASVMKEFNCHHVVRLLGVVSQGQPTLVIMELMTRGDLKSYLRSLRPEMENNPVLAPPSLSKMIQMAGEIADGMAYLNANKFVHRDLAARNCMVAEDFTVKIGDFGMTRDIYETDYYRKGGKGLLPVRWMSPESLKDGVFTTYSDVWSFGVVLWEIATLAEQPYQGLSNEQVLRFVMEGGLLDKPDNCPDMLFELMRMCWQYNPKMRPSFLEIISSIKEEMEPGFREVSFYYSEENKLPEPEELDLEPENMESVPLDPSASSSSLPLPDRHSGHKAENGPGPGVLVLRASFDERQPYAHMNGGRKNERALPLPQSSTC

Myotonin-protein kinase (Homo sapiens), sequence (Q09013 whole entry): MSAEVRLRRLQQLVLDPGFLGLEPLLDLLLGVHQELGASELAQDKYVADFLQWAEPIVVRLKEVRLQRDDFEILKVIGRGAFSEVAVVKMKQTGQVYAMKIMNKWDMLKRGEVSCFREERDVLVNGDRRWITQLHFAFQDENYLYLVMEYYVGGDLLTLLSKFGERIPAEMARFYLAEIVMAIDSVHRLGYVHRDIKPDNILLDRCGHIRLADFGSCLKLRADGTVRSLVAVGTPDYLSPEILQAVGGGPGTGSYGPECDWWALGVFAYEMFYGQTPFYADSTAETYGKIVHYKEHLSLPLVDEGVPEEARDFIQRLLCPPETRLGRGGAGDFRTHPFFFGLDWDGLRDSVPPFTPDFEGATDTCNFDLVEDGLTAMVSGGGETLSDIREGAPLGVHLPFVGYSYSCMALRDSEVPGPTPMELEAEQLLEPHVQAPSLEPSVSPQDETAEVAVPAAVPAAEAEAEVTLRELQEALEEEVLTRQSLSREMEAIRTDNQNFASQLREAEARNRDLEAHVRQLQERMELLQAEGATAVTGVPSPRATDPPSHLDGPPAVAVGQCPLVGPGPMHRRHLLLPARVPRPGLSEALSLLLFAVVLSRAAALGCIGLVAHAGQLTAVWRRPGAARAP
Ribosomal protein S6 kinase alpha-6 (Homo sapiens), sequence (Q9UK32 whole entry, the tested form may be a part): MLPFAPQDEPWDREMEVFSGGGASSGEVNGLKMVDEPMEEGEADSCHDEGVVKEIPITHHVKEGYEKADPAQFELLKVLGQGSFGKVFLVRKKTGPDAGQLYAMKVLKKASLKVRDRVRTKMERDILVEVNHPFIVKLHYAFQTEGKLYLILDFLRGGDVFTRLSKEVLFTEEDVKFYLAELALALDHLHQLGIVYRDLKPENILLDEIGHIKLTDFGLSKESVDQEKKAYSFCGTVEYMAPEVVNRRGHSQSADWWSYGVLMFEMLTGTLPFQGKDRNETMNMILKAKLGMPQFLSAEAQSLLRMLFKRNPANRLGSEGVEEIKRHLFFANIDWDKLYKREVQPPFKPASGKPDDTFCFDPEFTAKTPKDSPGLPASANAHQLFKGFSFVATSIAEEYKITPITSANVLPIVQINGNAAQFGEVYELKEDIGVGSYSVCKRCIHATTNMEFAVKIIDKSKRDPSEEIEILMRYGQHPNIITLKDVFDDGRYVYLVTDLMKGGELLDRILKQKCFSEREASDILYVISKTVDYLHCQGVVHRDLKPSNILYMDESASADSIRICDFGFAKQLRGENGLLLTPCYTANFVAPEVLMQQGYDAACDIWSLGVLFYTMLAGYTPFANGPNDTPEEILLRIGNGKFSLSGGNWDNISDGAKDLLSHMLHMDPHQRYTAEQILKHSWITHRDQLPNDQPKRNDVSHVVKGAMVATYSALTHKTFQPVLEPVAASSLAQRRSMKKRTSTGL
Cyclin-dependent kinase 11A (Homo sapiens), sequence (Q9UQ88 whole entry, canonical isoform): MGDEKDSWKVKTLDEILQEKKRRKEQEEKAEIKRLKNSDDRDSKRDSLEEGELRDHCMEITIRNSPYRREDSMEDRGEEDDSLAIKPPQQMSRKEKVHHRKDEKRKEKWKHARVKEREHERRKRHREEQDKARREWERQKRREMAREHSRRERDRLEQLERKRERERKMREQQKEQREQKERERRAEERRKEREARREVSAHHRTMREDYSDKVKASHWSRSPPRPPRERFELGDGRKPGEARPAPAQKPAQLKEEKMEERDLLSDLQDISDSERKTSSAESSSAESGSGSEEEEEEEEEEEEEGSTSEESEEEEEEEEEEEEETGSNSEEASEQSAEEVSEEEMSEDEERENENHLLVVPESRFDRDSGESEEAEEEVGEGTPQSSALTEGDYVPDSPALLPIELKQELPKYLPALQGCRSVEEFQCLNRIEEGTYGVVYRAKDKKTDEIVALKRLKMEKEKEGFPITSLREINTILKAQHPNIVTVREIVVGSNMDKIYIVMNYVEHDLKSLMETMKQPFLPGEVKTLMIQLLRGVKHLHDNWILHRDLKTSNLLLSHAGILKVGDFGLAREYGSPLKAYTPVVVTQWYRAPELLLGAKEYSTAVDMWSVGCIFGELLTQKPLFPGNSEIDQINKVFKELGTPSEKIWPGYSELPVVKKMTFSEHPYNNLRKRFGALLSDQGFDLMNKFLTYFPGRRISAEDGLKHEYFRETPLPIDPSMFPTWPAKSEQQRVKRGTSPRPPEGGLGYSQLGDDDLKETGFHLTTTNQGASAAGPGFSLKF
Tyrosine-protein kinase receptor Tie-1 (Homo sapiens), sequence (P35590 whole entry): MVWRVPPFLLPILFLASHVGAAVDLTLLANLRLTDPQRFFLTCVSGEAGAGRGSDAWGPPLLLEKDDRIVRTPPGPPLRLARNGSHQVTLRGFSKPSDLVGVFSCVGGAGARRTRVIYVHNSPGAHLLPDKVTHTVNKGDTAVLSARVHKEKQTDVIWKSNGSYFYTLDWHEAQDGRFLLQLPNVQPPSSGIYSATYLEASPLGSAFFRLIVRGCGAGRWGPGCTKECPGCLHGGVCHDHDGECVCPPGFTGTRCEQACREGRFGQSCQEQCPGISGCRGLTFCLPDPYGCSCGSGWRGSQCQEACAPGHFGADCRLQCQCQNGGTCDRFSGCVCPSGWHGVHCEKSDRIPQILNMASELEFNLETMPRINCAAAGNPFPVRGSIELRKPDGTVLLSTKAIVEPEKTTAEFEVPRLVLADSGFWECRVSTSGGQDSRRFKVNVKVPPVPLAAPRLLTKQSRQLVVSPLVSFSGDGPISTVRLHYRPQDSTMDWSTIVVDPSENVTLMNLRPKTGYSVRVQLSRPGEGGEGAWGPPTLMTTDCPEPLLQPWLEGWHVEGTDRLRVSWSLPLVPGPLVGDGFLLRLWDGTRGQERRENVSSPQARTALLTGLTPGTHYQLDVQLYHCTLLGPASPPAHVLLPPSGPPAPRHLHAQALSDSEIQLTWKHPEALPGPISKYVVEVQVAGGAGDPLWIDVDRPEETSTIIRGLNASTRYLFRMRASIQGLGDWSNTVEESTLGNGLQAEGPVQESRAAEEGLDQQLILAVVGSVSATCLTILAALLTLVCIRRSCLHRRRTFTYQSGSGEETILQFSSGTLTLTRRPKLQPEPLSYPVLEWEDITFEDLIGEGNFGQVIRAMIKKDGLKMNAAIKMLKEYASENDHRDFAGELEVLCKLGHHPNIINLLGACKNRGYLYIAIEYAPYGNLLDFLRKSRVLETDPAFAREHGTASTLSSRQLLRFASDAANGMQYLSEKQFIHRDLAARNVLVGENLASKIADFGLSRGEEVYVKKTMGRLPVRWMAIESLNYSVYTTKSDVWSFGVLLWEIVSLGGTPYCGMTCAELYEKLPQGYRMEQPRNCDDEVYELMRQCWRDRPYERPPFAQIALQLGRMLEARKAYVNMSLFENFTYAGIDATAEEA
Mitogen-activated protein kinase 3 (Homo sapiens), sequence (P27361 whole entry): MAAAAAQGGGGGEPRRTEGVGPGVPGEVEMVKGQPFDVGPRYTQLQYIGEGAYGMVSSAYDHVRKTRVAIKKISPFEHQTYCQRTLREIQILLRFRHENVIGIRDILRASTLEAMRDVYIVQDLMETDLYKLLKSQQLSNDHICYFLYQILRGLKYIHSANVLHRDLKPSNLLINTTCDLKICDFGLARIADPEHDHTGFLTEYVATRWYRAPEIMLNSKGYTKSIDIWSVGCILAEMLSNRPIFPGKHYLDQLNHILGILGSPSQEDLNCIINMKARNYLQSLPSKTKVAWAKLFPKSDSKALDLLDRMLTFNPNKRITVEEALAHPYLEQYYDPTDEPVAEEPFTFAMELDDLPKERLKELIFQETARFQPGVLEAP

CN(C)C(=O)c1ccc(N2CCCN(c3ccnc4sc(C(N)=O)c(N)c34)CC2)cc1
Activity [1]: 100% | Activity [2]: 89% and 100% | Activity [3]: 75% and 83% | Activity [4]: 97% | Activity [5]: 98% and 92% | Activity [6]: 79% and 80% | Activity [7]: 90% and 96% | Activity [8]: 98% and 99% | Activity [9]: 97% and 100% | Activity [10]: 74% and 71% | Activity [11]: 92% and 95% | Activity [12]: 91% and 81% | Activity [13]: 91% and 95% | Activity [14]: 88% and 97% | Activity [15]: 91% and 100% | Activity [16]: 100% and 93% | Activity [17]: 90% and 77% | Activity [18]: 100% and 88% | Activity [19]: 100% and 78% | Activity [20]: 78% and 80% | Activity [21]: 100% | Activity [22]: 95% | Activity [23]: 83% and 95% | Activity [24]: 100% and 97% | Activity [25]: 86% and 96% | Activity [26]: 100% and 93% | Activity [27]: 100% and 93% | Activity [28]: 100% | Activity [29]: 94% and 97% | Activity [30]: 85% and 89% | Activity [31]: 92% and 91%
